Legend:
[1] = test system: NOD scid/scid mice; test: Adoptive transfer of splenocytes from vaccinated NOD mice into NOD scid/scid mice; type: in vivo; conditions: for effect on incidence of diabetes in NOD scid/scid adoptive transfer model (in words): antigen in IFA; for scid/scid recipient mice that became diabetic: antigen in IFA sc. to NOD donors at 3, 5 and 7 weeks, splenocytes cotransferred with untreated NOD splenocytes, by the 75th day after adoptive transfer, 16 mice/group
Experimental: To test the efficacy of autoantigens in IFA, NOD mice were vaccinated with human recombinant GAD65 (300 μg/mice) in IFA (total volume 0.1 ml), human insulin B-chain (20.1 μg/mice) in IFA (total volume 0.1 ml) and sham protein (Lysozyme, 200 μg/mice) in IFA (total volume 0.1 ml) sc. in the inguinal areas at 3, 5 and 7 weeks of age. At 9 weeks of age the treated mice were sacrificed and their splenocytes (1.0×10^7 cells) were cotransfered with splenocytes from 9 weeks old untreated NOD mice (1.0×10^7 cells) into 9-11 weeks old NOD scid/scid mice (16 mice/group; total 2.0×10^7 cells/mice). Control group received splenocytes (2.0×10^7 cells/mice) from untreated NOD mice.

[2] = test system: NOD mice; test: Histological insulitis grading of pancreases of vaccinated NOD mice; type: in vivo; conditions: antigen in IFA; for mean insulitis score: 0-4 scale, pancreases at the time of adoptive transfer (9 weeks of age)
Experimental: Histological studies were performed on the pancreases of the vaccinated mice at the time of adoptive transfer.

[3] = test system: mice; conditions: mouse, in vivo
Text: In our animal study where we used IFA with human insulin B-chain or with human GAD65 protein, the mice were carefully observed for any adverse effect.

[4] = test system: NOD mice; conditions: cited from earlier work
[5] = test system: human; conditions: pilot human trial; Keller et al. 1993; cited from earlier work

Row | Substance | effect on incidence of diabetes in NOD scid/scid adoptive transfer model (in words) [1] | scid/scid recipient mice that became diabetic [1] | mean insulitis score [2] | other results
1 | GAD65: Human recombinant GAD65, 585 amino acid β-cell autoantigen (SEQ ID NO:2), given in IFA | significantly reduces the incidence of diabetes | 4/16 | 1.31 | effect on insulitis in NOD mice (in words) [2]: reduced insulitis; adverse effects, general and local [3]: well tolerated without any detectable side effects; Th1/Th2 balance ([4]; nasal administration, Tian et al. 1996): change in Th1/Th2 balance in favor of Th2 ‘protective’ cells response
2 | Insulin: β-cell specific major protein, moderately immunogenic when used alone |  |  |  | development of diabetes mellitus [5]: delaying the development of diabetes mellitus
3 | Lysozyme [reference compound] | not effective | all | 2.64 | 
4 | human recombinant insulin B-chain: Literature recombinant human insulin B-chain given in IFA (Ramiya et al.) [reference compound] |  |  |  | cytokine pattern in NOD mice islets ([4]; in IFA, Ramiya et al. 1996): Th2 cytokine pattern

Reference: patent US20060183670A1, “Autoantigen composition” (priority 2001, published 2006)
